Data taken from paper PMC8365602 (Journal of Medicinal Chemistry, 2021).
Like-named read-outs stand apart in the source and are kept apart here.

Assays:
[1] = molecular target: T1, 5-LOX (Homo sapiens, UniProt P09917); assay: 5-LOX product formation in activated PMNL;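 further: freshly isolated human PMNL in PBS pH 7.4 plus glucose, preincubated 10 min at 37 °C with compound, 5-LOX products (all-trans LTB4 isomers, 5-HETE) quantified by RP-HPLC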
T1 sequence (P09917 1-674): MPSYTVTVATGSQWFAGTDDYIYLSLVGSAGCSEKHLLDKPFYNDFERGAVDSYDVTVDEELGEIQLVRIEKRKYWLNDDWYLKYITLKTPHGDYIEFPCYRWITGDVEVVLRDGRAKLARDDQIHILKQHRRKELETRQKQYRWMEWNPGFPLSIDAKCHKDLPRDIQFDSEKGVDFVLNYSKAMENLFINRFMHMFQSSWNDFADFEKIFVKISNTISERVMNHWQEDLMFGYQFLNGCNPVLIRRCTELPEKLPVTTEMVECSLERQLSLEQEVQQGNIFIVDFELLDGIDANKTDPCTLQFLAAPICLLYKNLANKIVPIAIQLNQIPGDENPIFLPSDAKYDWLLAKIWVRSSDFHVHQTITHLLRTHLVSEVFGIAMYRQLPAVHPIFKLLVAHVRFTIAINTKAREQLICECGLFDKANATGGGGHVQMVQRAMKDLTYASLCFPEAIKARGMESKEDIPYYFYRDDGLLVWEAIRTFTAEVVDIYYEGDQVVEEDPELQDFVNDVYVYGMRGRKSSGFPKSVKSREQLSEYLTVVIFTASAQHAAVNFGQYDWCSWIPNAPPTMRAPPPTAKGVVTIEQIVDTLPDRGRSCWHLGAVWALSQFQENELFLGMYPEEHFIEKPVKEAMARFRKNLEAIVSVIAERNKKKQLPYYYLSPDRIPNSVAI
Procedure: These volunteers regularly donated blood (every 8–12 weeks) and were physically inspected by a clinician.
Erythrocytes were removed by dextran sedimentation and hypotonic lysis. PMNL were obtained from the cell pellet and platelets from the supernatant.
Freshly isolated PMNL (5 × 10^6) suspended in PBS pH 7.4 with 1 mg/mL glucose or freshly withdrawn human whole blood were preincubated with the test compounds for 10 min (or as indicated) at 37 °C. […] The reaction was stopped with an equal volume of methanol.

[2] = molecular target: T1, 5-LOX; assay: Cell-free 5-LOX activity (isolated human recombinant enzyme)
Procedure: Human recombinant 5-LOX was expressed in E. coli Bl21 (DE3) cells that were transformed with pT3–5LOX (wt 5-LOX), 5-LOX_3W (triple mutation of Trp102Ala/Trp13Ala/Trp75Ala), or 5-LOX_R (single mutant of the Arg101Asp plasmid) and purified on an ATP-agarose column (Econo-Pac, Bio-Rad, Hercules, CA) by affinity chromatography.[6],[75]
Purified 5-LOX (0.5 μg in PBS pH 7.4 containing 1 mM EDTA and 1 mM ATP) was preincubated with the vehicle (DMSO) or test compounds for 10 min and prewarmed at 37 °C.

[3] = PMNL, read-out: 5-LOX PMNL residual activity at 3 µM (Table S1)
[4] = read-out: 5-LOX enzyme residual activity at 1 µM (Table S1)
[5] = PMNL, read-out: 5-LOX PMNL residual activity at 3 μM
[6] = read-out: 5-LOX PMNL IC50, 5-LOX product formation in activated PMNL, mean ± SEM
[7] = read-out: 5-LOX enzyme IC50, isolated human 5-LOX, cell-free, mean ± SEM
[8] = read-out: 5-LOX enzyme residual activity at 1 μM

Structure (SMILES) | IC50 [1] [µM] | remaining activity at 3 µM [1, 3] [%] | IC50 [2] [µM] | remaining activity at 1 µM [2, 4] [%] | remaining activity at 3 µM [1, 5] [%] | IC50 [1, 6] [µM] | IC50 [2, 7] [µM] | remaining activity at 1 µM [2, 8] [%] | remaining activity at 1 µM ([1]; PMNL, read-out: 5-LOX PMNL residual activity at 1 μM (cells marked b)) [%]
Cc1cc(O)c(C=O)c2c1O[C@](C)(CCC[C@H](C)CCC[C@H](C)CCCC(C)C)CC2 [Compound 3] | > 3 | 92.2 ± 6.3 | > 1 | 94.6 ± 3.5 |  |  |  |  | 
C/C(=C\CC/C(C)=C/CC[C@]1(C)CCc2c(CN(C)C)c(O)cc(C)c2O1)CC/C=C(\C)C(=O)O [Compound 23] |  |  |  |  | 33.1 ± 8 | 2.06 ± 0.45 | 0.07 ± 0.02 | 7.9 ± 3.6 | 
C/C(=C\CC/C(C)=C/CC[C@]1(C)CCc2c(CN3CCOCC3)c(O)cc(C)c2O1)CCC=C(CO)CO [Compound 37, 2-((4E,8E)-11-((R)-6-Hydroxy-2,8-dimethyl-5-(morpholinomethyl)chroman-2-yl)-4,8-dimethylundeca-4,8-dien-1-ylidene)propane-1,3-diol] |  |  |  |  | 11.3 ± 3.3 | 1.74 ± 0.09 | 0.12 ± 0.03 | 3.9 ± 0.6 | 
CC(C)=CCC/C(C)=C/CC/C(C)=C/CC[C@]1(C)CCc2c(C=O)c(O)c(Br)c(C)c2O1 [Compound 8] | > 3 | 79.2 ± 16.7 | > 1 | 59 ± 5.9 |  |  |  |  | 
CCOC(=O)c1cc2c3c(c(C)cc2oc1=O)O[C@](C)(CC/C=C(\C)CC/C=C(\C)CCC=C(CO)CO)CC3 [Compound 43, Ethyl-(R)-8-((3E,7E)-13-hydroxy-12-(hydroxymethyl)-4,8-dimethyltrideca-3,7,11-trien-1-yl)-6,8-dimethyl-3-oxo-3,8,9,10-tetrahydropyrano[3,2-f]chromene-2-carboxylate] |  |  |  |  | 8.1 ± 1 | 1.58 ± 0.21 | 0.47 ± 0.14 | 29.3 ± 2.6 | 
C/C(=C\CC/C(C)=C/CC[C@]1(C)CCc2c(C=O)c(O)cc(C)c2O1)CCC=C(CO)CO [Compound 34] |  |  |  |  | 6.1 ± 0.1 | 1.81 ± 0.32 | 0.17 ± 0.06 | 13.8 ± 4.4 | 
C/C(=C\CC/C(C)=C/CC[C@]1(C)CCc2c(CN3CCN(C)CC3)c(O)c(CN3CCN(C)CC3)c(C)c2O1)CCC=C(CO)CO [Compound 40, 2-((4E,8E)-11-((R)-6-Hydroxy-2,8-dimethyl-5,7-bis((4-methylpiperazin-1-yl)methyl)chroman-2-yl)-4,8-dimethylundeca-4,8-dien-1-ylidene)propane-1,3-diol] |  |  |  |  | 77.8 ± 7.6 | > 3 | > 1 | 50.3 ± 4.1 | 
C/C(=C\CC/C(C)=C/CC[C@]1(C)CCc2cc(O)cc(C)c2O1)CCC=C(CO)CO [Compound 27d, δ-amplexichromanol] |  |  |  |  |  | 0.43 ± 0.04 |  | 1.8 ± 0.9 | 14.7 ± 1.6
C/C(=C\CC/C(C)=C/CC[C@]1(C)CCc2c(C)c(O)c(C=O)c(C)c2O1)CCC=C(CO)CO [Compound 33] |  |  |  |  | 7.5 ± 2.2 | 1.38 ± 0.28 | 0.17 ± 0.05 | 8.9 ± 3.5 | 
C/C(=C\CC[C@]1(C)CCc2cc(O)cc(C)c2O1)C(=O)O [Compound 18, (R,E)-5-(6-Hydroxy-2,8-dimethylchroman-2-yl)-2-methylpent-2-enoic Acid] |  |  |  |  | 88.8 ± 6.4 | > 3 | > 1 | 56.4 ± 18.3 | 
COc1cc(C)c2c(c1)CC[C@@](C)(CC/C=C(\C)CC/C=C(\C)CCCC(C)C(=O)O)O2 (stereo partly drawn) [Compound 20, (6E,10E)-13-((R)-6-Methoxy-2,8-dimethylchroman-2-yl)-2,6,10-trimethyltrideca-6,10-dienoic Acid] |  |  |  |  |  |  | > 1 | 98.1 ± 1.3 | 
C/C(=C\CC[C@]1(C)CCc2cc(O)cc(C)c2O1)CC/C=C(\C)CCCC(C)C(=O)O (stereo partly drawn) [Compound 19b, (6E,10E)-13-((R)-6-Hydroxy-2,8-dimethylchroman-2-yl)-2,6,10-trimethyltrideca-6,10-dienoic Acid] |  |  |  |  | 3.8 ± 0.8 | 0.61 ± 0.15 |  | 7.4 ± 2.7 | 
COC(=O)C(C)CCC/C(C)=C/CC/C(C)=C/CC[C@]1(C)CCc2cc(O)cc(C)c2O1 (stereo partly drawn) [Compound 21, (6E,10E)-Methyl-13-((R)-6-hydroxy-2,8-dimethylchroman-2-yl)-2,6,10-trimethyltrideca-6,10-dienoate] |  |  |  |  | 14.1 ± 6 | 1.14 ± 0.39 | 0.17 ± 0.01 | 5.8 ± 1.7 | 
C/C(=C\CC[C@]1(C)CCc2cc(O)cc(C)c2O1)CCC=C(CO)CO [Compound 28, (R,E)-2-(7-(6-Hydroxy-2,8-dimethylchroman-2-yl)-4-methylhept-4-en-1-ylidene)propane-1,3-diol] |  |  |  |  | 36.3 ± 6.5 | 2.3 ± 0.26 | 0.17 ± 0.03 | 15 ± 2.4 | 
COC(=O)C(C)CCC/C(C)=C/CC/C(C)=C/CC[C@]1(C)CCc2cc(OC)cc(C)c2O1 (stereo partly drawn) [Compound 22, (6E,10E)-Methyl-13-((R)-6-methoxy-2,8-dimethylchroman-2-yl)-2,6,10-trimethyltrideca-6,10-dienoate] |  |  |  |  |  |  | > 1 | 88.7 ± 4.3 | 
Cc1c(C=O)c(O)c(Cl)c2c1O[C@](C)(CCC[C@H](C)CCC[C@H](C)CCCC(C)C)CC2 [Compound 2, (R)-5-Chloro-6-hydroxy-2,8-dimethyl-2-((4R,8R)-4,8,12-trimethyltridecyl)chromane-7-carbaldehyde] | > 3 | 110 ± 10.7 | > 1 | 72.9 ± 5.6 |  |  |  |  | 
C/C(=C\CC/C(C)=C/CC[C@]1(C)CCc2cc(OCC(N)=O)cc(C)c2O1)CCC=C(CO)CO [Compound 32, 2-(((R)-2-((3E,7E)-13-Hydroxy-12-(hydroxymethyl)-4,8-dimethyltrideca-3,7,11-trien-1-yl)-2,8-dimethylchroman-6-yl)oxy)acetamide] |  |  |  |  |  |  | > 1 | 99.8 ± 5.6 | 
Cc1cc(O)cc2c1O[C@](C)(CCCC(C)CCCC(C)CCCC(CO)CO)CC2 (stereo partly drawn) [Compound 26, 2-(11-((R)-6-Hydroxy-2,8-dimethylchroman-2-yl)-4,8-dimethylundecyl)propane-1,3-diol] |  |  |  |  | 81.3 ± 0.7 | > 3 | > 1 | 53.1 ± 7.4 | 
Cc1cc(O)c(C(=O)O)c2c1O[C@](C)(CCC[C@H](C)CCC[C@H](C)CCCC(C)C)CC2 [Compound 5] | > 3 | 80.8 ± 0.6 | > 1 | 54.6 ± 5.8 |  |  |  |  | 
CC(=O)c1cc2c3c(c(C)cc2oc1=O)O[C@](C)(CC/C=C(\C)CC/C=C(\C)CCC=C(CO)CO)CC3 [Compound 42, (R)-2-Acetyl-8-((3E,7E)-13-hydroxy-12-(hydroxymethyl)-4,8-dimethyltrideca-3,7,11-trien-1-yl)-6,8-dimethyl-9,10-dihydropyrano[3,2-f]chromen-3(8H)-one] |  |  |  |  | 15.3 ± 6.9 | 1.44 ± 0.42 | 0.21 ± 0.02 | 23.3 ± 2.3 | 
C/C(=C\CC/C(C)=C/CC[C@]1(C)CCc2c(C)c(O)cc(C)c2O1)CCC=C(CO)CO [Compound 27b] |  |  |  |  | 0.9 ± 0.5 | 0.1 ± 0.02 | 0.09 ± 0.02 | 0 | 
C/C(=C\CC/C(C)=C/CC[C@]1(C)CCc2cc(O)c(C)c(C)c2O1)CCC=C(CO)CO [Compound 27c] |  |  |  |  | 0.8 ± 0.2 | 0.05 ± 0.04 |  | 0.1 ± 0.1 | 
CC(C)=CCC/C(C)=C/CC/C(C)=C/CC[C@]1(C)CCc2c(C=O)c(O)cc(C)c2O1 [Compound 7] | > 3 | 87.1 ± 8 | > 1 | 74.5 ± 4.3 |  |  |  |  | 
C/C(=C\CC[C@]1(C)CCc2cc(O)cc(C)c2O1)CC/C=C/C(=O)O [Compound 16, (2E,6E)-9-[(2R)-6-Hydroxy-2,8-dimethyl-3,4-dihydro-2H-1-benzopyran-2-yl]-6-methylnona-2,6-dienoic Acid] |  |  |  |  | 77 ± 3.9 | > 3 | 0.92 ± 0.04 | 47.3 ± 1.1 | 
COc1ccc(C2OCC(=CCC/C(C)=C/CC/C(C)=C/CC[C@]3(C)CCc4c(C)c(O)c(C=O)c(C)c4O3)CO2)cc1OC (stereo partly shown) [Compound 47] |  |  |  |  | 84 ± 8.5 | > 3 | > 1 | 58.7 ± 4.6 | 
C/C(=C\CC[C@]1(C)CCc2cc(O)cc(C)c2O1)CCC(O)C(C)(O)CCC=C(CO)CO (stereo partly shown) [Compound 30] |  |  |  |  |  |  | 0.38 ± 0.11 | 12.2 ± 4.1 | 

Now from value to molecule, other results behind:

IC50 [1] [µM] | remaining activity at 3 µM [1, 3] [%] | IC50 [2] [µM] | remaining activity at 1 µM [2, 4] [%] | Structure (SMILES) | remaining activity at 3 µM [1, 5] [%] | IC50 [1, 6] [µM] | IC50 [2, 7] [µM] | remaining activity at 1 µM [2, 8] [%] | remaining activity at 1 µM ([1]; PMNL, read-out: 5-LOX PMNL residual activity at 1 μM (cells marked b)) [%]
 |  | > 1 |  | COc1ccc(C2OCC(=CCC/C(C)=C/CC/C(C)=C/CC[C@]3(C)CCc4cc(OCCCC(=O)O)cc(C)c4O3)CO2)cc1OC (stereo partly drawn) [Compound 45, 4-(((2R)-2-((3E,7E)-11-(2-(3,4-Dimethoxyphenyl)-1,3-dioxan-5-ylidene)-4,8-dimethylundeca-3,7-dien-1-yl)-2,8-dimethylchroman-6-yl)oxy)butanoic Acid] |  |  |  | 83 ± 7.6 | 
 |  | 0.21 ± 0.14 |  | COc1ccc(C2OCC(=CCC/C(C)=C/CC/C(C)=C/CC[C@]3(C)CCc4cc(O)cc(C)c4O3)CO2)cc1OC (stereo partly shown) [Compound 44] |  |  |  | 12.7 ± 9.3 | 
